SMILES strings stand for the structures.

Data set [1] has as its system primary human hepatic stellate cells (hHSCs). The source says: (§1) Primary hHSCs were isolated from wedge sections of liver tissue, obtained from patients undergoing surgery in the Royal Free Hospital after giving informed consent (EC01.14-RF). Cells were isolated according to Mederacke et al. (Nature Protocols 2015, 10:305-315) with modifications for human liver as described in Rombouts K, Carloni V. Determination and characterization of tetraspanin-associated phosphoinositide-4 kinases in primary and neoplastic liver cells. In: Waugh MG, editor. Lipid Signaling Protocols, 2 ed. New York: Springer Science+Business Media; 2015. p. 203-212). Briefly, 10 g of total human liver tissue was digested with 0.01% Collagenase, 0.05% Pronase and 0.001% DNase I without performing perfusion. The homogenate was filtered through a 100 μm cell strainer and the flow-through was centrifuged at 50×g for 2 minutes at 4° C. After washing the supernatant, gradient centrifugation was performed at 1400×g for 17 minutes at 4° C. using an 11.5% Optiprep gradient. Finally, the interface was collected and washed. Purity of hHSCS was established by detection of CD140b (PDGFRbeta), CD29 (Integrin beta 1) and Cytoglobin (CYGB).
The obtained HSCs were cultured in RPMI supplemented with 20% fetal bovine serum (FBS), GLUTAMAX, nonessential amino acids 1×, 1.0 mM sodium pyruvate, 1× antibiotic-antimycotic (all Life Technologies), referred to as complete HSC medium hereinafter. […]

Data set [2] shares this test system. Conditions: after 3 hours, sustained after 24 hours, vs control. The procedure: (§2) In this example, primary human HSCs (hHSCs) were isolated and cultured. Proliferation (BrdU), metabolic activity (MTS), morphology (TEM, light- and immunofluorescence microscopy), HSC activation markers, ability to contract, and changes in oxidative status (ROS) were evaluated to identify effects of ammonia challenge (50 μM, 100 μM, 300 μM) over 24-72 hours.

The test system is the same in data set [3]. Conditions: up to 72 hours. The procedure:
The formation of reactive oxygen species (ROS) was measured using Image-IT™ LIVE Green Reactive Oxygen Species Detection Kit. In FIG. 3B, mean fluorescence intensity (MFI) of ROS signal was normalized according to the number of cells (Hoechst 33342), and expressed as percentage of control.
as §2

For data set [4] the test system is unchanged. The procedure: (§3) Primary human hepatic stellate cells (hHSCs) were cultured. Effects of an NH4Cl challenge (0.1-10 mM over 24-72 hrs) on hHSC proliferation (BrdU), metabolic activity (MTS assay), viability (Neutral-Red), ultrastructural changes (TE-M) and gene/protein expression (q-PCR/Western blot) were studied. To test recovery, ammonia treated cells were replenished with glutamine and in separate experiments, pre-treated with L-methionine-sulfoximine (MSO-GS inhibitor) to determine the importance of glutamine synthetase (GS).
as §2, §1
The obtained HSCs were cultured in RPMI supplemented with 20% fetal bovine serum (FBS), GLUTAMAX, nonessential amino acids 1×, 1.0 mM sodium pyruvate, 1× antibiotic-antimycotic (all Life Technologies), referred to as complete HSC medium hereinafter. Experiments described in this study were performed on hHSCs of at least three independent cell preparations between passage 3 and 8.
Cells were seeded (density 26×10^3/cm^2) under basic serum-rich conditions (CM complete medium) for 24 hours, followed by serum deprivation for another 24 hours (SFM). Exogenous glutamine was removed from the culture medium to avoid uncontrolled generation of ammonia. Specific treatment with NH4Cl treatments were replaced daily for the duration of the experiment.
The source holds these as a separate data set.

Another data set deals with SOD2. Kind of data set: SOD2 mRNA expression in hHSC. The format is cell-based, human.
The subject of data set [5] is MMP2, TIMP1, Interleukin-1β, Interleukin 6, Interleukin 8. The procedure:
as §3, §2

Data set [6] relates to α-SMA, vimentin, PDGF-Rβ, Myosin IIa and IIb, p-38 MAPK, Collagen type I. How it is done:
as §3, §2

Data set [7] concerns primary human hepatic stellate cells (hHSCs). Kind of data set: hHSC recovery with glutamine and GS inhibition (MSO) under ammonia. The format is cell-based. The procedure: as §3
The mark [8] stands for this setting: Example 1, NH4Cl challenge 0.1-10 mM over 24-72 hrs.
The mark [9] stands for this setting: different concentrations of ammonia (50, 100, 300 μM), 72 hours.
Where [10] appears, read: in comparison to MSO treatment only.
Setting [11] is: increasing concentrations of ammonia.

Turning to `N` [ammonia, NH4Cl], the “Cell death (Cell Death Detection ELISA)” value in data set [1] is on record as “did not cause cell death”. In data set [2], the “Contraction of hHSCs cultured on collagen gels” value is listed as “significant ability to contract”. Besides, the ROS production result in data set [3] was “produced significant reactive oxygen species”. For the same molecule, the “Filamentous actin in the cytoskeleton (TRITC-Phalloidin staining)” value in data set [4] (72 hours) is given as “dose-dependent disruption of filamentous actin”. Also, the “Intracellular ER (ultrastructure)” value in data set [4] (Example 1) was “dose-dependent intracellular ER enlargement”. For the same molecule, in data set [4] (setting [8]), the Metabolic activity result is on record as “time dependent decreases” and the Proliferation result was “time dependent decreases”. The Cell phenotype result in data set [4] (Example 1, even at 50-100 umol/L) is “cell swelling and a myo-fibroblast-like phenotype”. In addition, in data set [4] (setting [9]), the “Cell proliferation (BrdU assay)” value is reported as “significant inhibition” and the “Metabolic activity (MTS assay)” value was “significant inhibition”. Further, the “Ultrastructural change (TEM)” value in data set [4] (dose-dependent, FIG. 2A) was “dramatic dose-dependent change in the cytosol and marked presence of translucent vacuoles”. In addition, in data set [4] (setting [10]), the “Metabolic activity after MSO pretreatment followed by ammonia” value is “did not further inhibit” and the “Proliferation after MSO pretreatment followed by ammonia” value was “did not further inhibit”. The “SOD2 mRNA expression” value in the data set with SOD2 (ammonia, after 3 hours, sustained at 24 hours) was “strong increase”. Besides, the “Interleukin 8 mRNA expression” value in data set [5] was “did not modify”. For the same molecule, in data set [5] (FIG. 4B), the “MMP2 mRNA expression” value was “strong and significant up-regulation”; the “TIMP1 mRNA expression” value was “down-regulated”. Also, the “Interleukin-1β mRNA expression” value in data set [5] (ammonia 300 μM for 72 hours) is “significantly induced”. In data set [5] (ammonia at 50 μM and 100 μM), the “Interleukin 6 mRNA expression level” value is listed as “significantly up-regulated”. Besides, in data set [6], the “P-38 MAPK expression” value is “dose-dependent response” and the PDGFR-β protein result is reported as “significant up-regulation”. Moreover, the Vimentin synthesis result in data set [6] (300 μM ammonia) is given as “increased”. The α-SMA protein expression result in data set [6] (FIG. 4A) is “significantly increase”. In data set [6] (setting [11]), the “Myosin IIa protein” value was “significantly modulated” and the “Myosin IIb protein” value is listed as “significantly modulated”. Also, in data set [6] (not statistically significant), the “Collagen type I protein” value was “tendency to increase”.

For `NC(=O)CC[C@H](N)C(=O)O` [L-glutamine], the “Ammonia-induced ER enlargement on replenishing the culture with L-glutamine” value in data set [7] (Example 1) is on record as “reversible”.

On to `CS(=N)(=O)CC[C@H](N)C(=O)O` (stereo partly drawn) [MSO, L-Methionine sulfoximine], for which the “Effect of MSO together with hyperammonemia on hHSC” value in data set [7] (Example 1, MSO pre-treatment) is “induced cell detachment and prevention of recovery”.

Regarding `CC(=O)N[C@@H](CS)C(=O)O` [NAC, N-acetyl cysteine], the “Ammonia-induced SOD2 mRNA expression after NAC pre-treatment” value in the data set on SOD2 (3 hours of ammonia treatment) is on record as “no impact”; with SOD2 (24 hours of ammonia treatment), “almost completely abolished”.

These data come from US11040021B2, “Treatment of diseases associated with hepatic stellate cell activation using ammonia-lowering therapies” (UCL Business PLC, priority 2014, dated 2021).
